This is an account of results in patent US20100297673A1, “METHODS AND COMPOSITIONS FOR UPREGULATION OF PEROXIREDOXIN ACTIVITY” (Reddy US Therapeutics, priority 2006, published 2010).

In one assay the test system is Peroxiredoxin. Kind of assay: Peroxiredoxin activity assay (NADPH oxidation coupled to H2O2 reduction). The assay is classed as biochemical. Particulars: addition to liver cells (FIG. 3); assay method states 500 nM compound A. How it is done:
An in vitro assay was developed to identify compounds that activated Peroxiredoxin (Peroxiredoxin inducers). In a 96-well plate, Peroxiredoxin (0.1 μg) was incubated with 5 μM of an unknown candidate compound and mixed with Hepes buffer containing NADPH, thioredoxin, thioredoxin reductase and hydrogen peroxide. When hydrogen peroxide was reduced by the activated Peroxiredoxin, the quantitative indicator, NADPH was converted to NADP. A decrease in NADPH was monitored by determining the absorption at […]. A decrease in NADPH was therefore, indicative of a Peroxiredoxin inducer.
Peroxiredoxin-mediated reduction of H2O2 was coupled to oxidation of NADPH oxidation. NADPH oxidation was monitored as a decrease in absorbance at 340 nm (A340). The control reaction contained 50 mM Hepes-NaOH (pH 7.0), 1 mM EDTA, 2 μM thioredoxin, 150 nM thioredoxin reductase, H2O2 (8.8 mM), NADPH ([…]), and Peroxiredoxin (1 μM). The treatment group in addition contained 500 nM of compound A. The reaction was incubated for 30 seconds to 10 minutes and the change in absorbance was monitored.

For a further assay, the system named is LDL-receptor null mice. As to the kind of experiment: Hyperlipidemia model, LDL-receptor null mice on cholesterol diet. The following applies: 100 mg/kg oral once a day, 15 days, plasma, vs vehicle. The assay is classed as in vivo. The procedure:
First, 14 week old LDL-receptor null mice were fed with a diet containing 0.8% cholesterol, 0.1% cholic acid and 20% coconut oil and once a day orally dosed with carboxymethyl cellulose suspension alone Compound A at 100 mg/kg (in carboxymethyl cellulose suspension) for 15 days. At the end of the study, plasma levels of cholesterol and triglycerides were determined using an enzymatic method (INFINITY™ Sigma Diagnostics).

The test system of assay [1] is apolipoprotein E-null mice. As to the kind of experiment: Hyperlipidemia model, apolipoprotein E-null mice. The assay is classed as in vivo. The following applies: 100 mg/kg oral once a day, 14 days, plasma, vs vehicle. The procedure:
Second, 8 week old apolipoprotein E-null mice were fed with normal chow diet and once a day orally dosed with carboxymethyl cellulose suspension alone or Compound A at 100 mg/kg (in carboxymethyl cellulose suspension) for 14 days. At the end of the study, plasma levels of cholesterol and triglycerides were determined.

In assay [2] the test system is Human Aortic Smooth Muscle cells. Kind of assay: Cellular peroxide levels (Amplex Red Kit). The assay is classed as cell-based. The following applies: 3 uM compound, 30 min pre-incubation then 1 hour in growth media, cell lysates. The procedure: H2O2 levels in human aortic smooth muscle cells (Rockland, Me. Clonetics, catalog #CC-2535) were measured using Amplex Red Kit (Molecular Probes). Smooth muscle cells were cultured in Clonetics growth media containing 5% fetal bovine serum. Cells at 70 percent confluence were starved overnight in serum free media and incubated for further 30 min in serum free media alone (control) or medium containing […] compound A (treatment) for 30 minutes. Growth media containing serum was then added and incubated for one hour. The cells were then lysed and H2O2 was assayed in lysates using Amplex Red Kit (Molecular Probes).
To establish that compound mediated activation of Peroxiredoxin will result in decreased H2O2, H2O2 levels were measured in untreated (control) and compound A treated smooth muscle cells (See FIG. 16). Human Aortic Smooth Muscle cells at 70 percent confluence were starved overnight in basal media and incubated for further 30 min in basal medium alone (control) or medium containing 3 uM compound (treatment) for 30 minutes. Growth media was then added to the control sample and growth media plus compound was added to the treatment group and incubated for one hour. The cells were then lysed and H2O2 was assayed in lysates using Amplex Red Kit (Molecular Probes).

Another assay relates to MCP-1. As to the kind of experiment: MCP-1 ELISA in TNFα-induced endothelial cells. The assay is classed as cell-based. The following applies: Homo sapiens, Endothelial cell, 0.5 ng/ml TNFα, overnight, read-out: inhibition of MCP-1 levels. The procedure:
MCP-1 ELISA is carried out using Quantikine Human MCP-1 kit as described by manufacturer (R&D Systems, Minneapolis, Minn., Catalog #DY279E). Mouse anti-human MCP-1 was used as the capture antibody and HRP-conjugated goat anti-human MCP-1 (Zymed (now part of Invitrogen) catalog #81-1620, Carlsbad, Calif.) was used as the detection antibody. Culture media were incubated with capture antibody (in 96 well) for 2 hours at room temperature. Wells were washed three times with wash buffer (0.05% tween-20 in phosphate buffered saline (PBS) pH 7.4) followed by incubation with detection antibody for 2 hours at room temperature. Color development was read at 450 nm in a Microplate reader.
TNF-alpha (TNFα) (R&D Systems, Minneapolis, Minn., Catalogue No. 210-TA-010) is a pro-inflammatory cytokine implicated in the development of cardiovascular disease. Inflammatory markers produced in response to TNFα include monocyte chemoattractant protein—MCP-1, and vascular cell adhesion molecule—VCAM-1. […] To determine whether compound mediating the activation of Peroxiredoxin will result in decreased inflammation, MCP-1 and VCAM-1 levels were measured in TNFα-induced endothelial cells. […] After fixing the cells, VCAM-1 expression was detected with the primary and secondary antibodies. Colorimetric measurements with made with the Multiskan Ascent plate reader.
A general note: ELISA stands for enzyme-linked immunosorbent assay.

In another assay the test system is VCAM-1. Kind of assay: VCAM-1 ELISA in TNFα-induced endothelial cells. The assay is classed as cell-based. The following applies: Homo sapiens, Endothelial cell, 0.5 ng/ml TNFα, overnight, read-out: inhibition of VCAM-1 levels. The procedure: Endothelial cell surface VCAM-1 was measured following compound A treatments. The cell layer was washed once with PBS and fixed with methanol. After fixing the cells, VCAM-1 expression was detected with the primary VCAM-1 antibody (goat-anti-Human VCAM-1 antibody—catalog# BBA19, R&D Systems) and secondary anti-goat antibody conjugated to horse radish peroxidase. Colorimetric measurements with made with the Multiskan Ascent plate reader.
TNF-alpha (TNFα) (R&D Systems, Minneapolis, Minn., Catalogue No. 210-TA-010) is a pro-inflammatory cytokine implicated in the development of cardiovascular disease. Inflammatory markers produced in response to TNFα include monocyte chemoattractant protein—MCP-1, and vascular cell adhesion molecule—VCAM-1. Endothelial cells are known to produce these markers in response TNFα. To determine whether compound mediating the activation of Peroxiredoxin will result in decreased inflammation, MCP-1 and VCAM-1 levels were measured in TNFα-induced endothelial cells. Cells were stimulated with 0.5 ng/ml of TNFα with or without compound A in basal media supplemented with 1% FBS. Each treatment condition was done in triplicate. […] After fixing the cells, VCAM-1 expression was detected with the primary and secondary antibodies. Colorimetric measurements with made with the Multiskan Ascent plate reader.

The subject of the next assay is TNF-α. As to the kind of experiment: LPS-induced acute inflammation in rats, serum TNF-α ELISA. The assay is classed as in vivo, Sprague Dawley rats. The following applies: 60 mg/kg oral, LPS 1 mg/kg i.p., serum 1 hour after LPS. How it is done:
The compound A was orally administrated (60 mg/kg) to female Sprague Dawley rats followed by intraperitoneal administration lipopolysaccharide (LPS−1 mg/kg). Blood samples were collected 1 hour after LPS administration. TNF-α level in the serum was analyzed by using ELISA.

Assay [3] concerns HepG2 cells. As to the kind of experiment: Real time-PCR gene expression in HepG2 cells. In kind it is cell-based, human. The procedure: HepG2 cells were prepared from the T-75 flasks and were used to seed the 24-well plates with 1.6×10^5 cells per well per 1 ml of growth media. The next day, the media was removed and 1 ml of low-serum growth media was added to each well for 24 hours. The following day, the low-serum media was removed. In selected experiments, cells were treated with 100 uM H2O2 or si-Peroxiredoxin I. Media was removed and cells were lysed with the lysis buffer from the Ambion RNAqueous kit and plate was placed on ice. RNA was extracted using the kit according to the protocol. The RNA was quantitated using a spectrophotometer and frozen at −80° C. The next day, the RNA was used for real-time PCR. The RNA was thawed and master mixes for each primer were prepared with the Stratagene Full Velocity SYBR Green QRT-PCR Master Mix. Master Mix with primer was added to the appropriate wells then RNA was added to appropriate wells. […]
HepG2 cells were grown in T-75 flasks prior to study. […] Total cholesterol and apoB levels were measured using an enzymatic assay. Percentage change was evaluated by comparing to both the baseline and the vehicle at the end of the study. […] RNA was isolated according to the manufacturer's protocol (Qiagen) and analyzed for changes in gene expression normalized to actin using RT-PCR. […]

In assay [4] the test system is HepG2 cells. Kind of assay: Dil-LDL uptake assay in HepG2 cells. The assay is classed as cell-based, human. The procedure: Glass cover slips were autoclaved and aseptically transferred to 6-well tissue culture plates in a tissue culture hood. HepG2 cells were prepared from the T-75 flasks and were used to seed the 6-well plates (containing sterile cover slips) with 7.5×10^5 cells per well per 1 ml of growth media. The following day, the media was removed and the wells were washed 3 times with 2 mL DMEM+10% DLCS very gently. After washes, 2 ml of DMEM+10% (DLCS) was added to the wells and treatments continued for 24 hours. In selected experiments, cells were treated with 100 uM H2O2, control IgG or perlecan antibodies. The next day, the media was not changed and Dil LDL and DAPI were added to wells for uptake (5 hours). After the uptake was completed, the wells were washed gently 3 times with PBS (2 mL/well/wash) and after last wash, cells were fixed with 1 mL of 4% formaldehyde in PBS for 20 minutes. Wells were washed 5 times with water in excess. Cover slips were then mounted to slides using clearmount. Slides were stored at −20° C. The slides were imaged using the Nikon microscope and ColdSNAP-Pro camera. […] Images were quantitated using Image Pro-Plus software. The intensity per area of the fluorescent label was quantitated using the software and was used to generate the figure which is LDL uptake per area as a percent of the control.

Another assay deals with Stat1. As to the kind of experiment: Stat1 activity assay (Stat1-luciferase reporter). In kind it is cell-based, human. The following applies: HepG2 transfected with Stat1-luciferase. How it is done:
HepG2 cells were prepared from the T-75 flasks and were used to seed the 24-well plates with 7.6×10^4 cells per well per 0.5 ml of DMEM+10% FBS. The next day, Stat1-lucuferase transfections were set up with Fugene6 according to the manufacturer's directions. In brief, transfection mixtures were prepared in DMEM in separate tubes from the reporter constructs also in DMEM. The samples incubated for 5 minutes at room temperature. Then, the constructs were mixed with the Fugene6 and incubated again for 30 minutes at room temperature. Then 50 μl transfection mix was added to each well in the existing media. Cells were allowed to incubate over night. In selected experiments, cells were treated with 100 uM H2O2 as well as with siPRDX1. After treatment, cells were lysed with the Promega lysis buffer. The wells were scraped and lysates were transferred into pre-chilled tubes and the lysates were cleared via centrifugation. 20 μl of cleared lysate was added to wells in 96 well clear plates and 100 μl of luciferase assay buffer was added to wells. Relative light units were counted using the PerkinElmer Envision.
HepG2 were transiently transfected with a Stat1-luciferase reporter construct and subject to treatment with either H2O2 or siPeroxiredoxin 1. Bars show the mean±SD. Asterisks indicate statistical difference from the Mock group with significance values of p<0.05. […]

For assay [5] the following is noted: in vivo; cited from earlier work.

Broadly, the inhibition is the percentage by which the read-out fell short of the control. In the case of `COc1ccc(Nc2nc(NC3CCCCCC3)nc(N3CCC(OC(=O)CCC(=O)O)CC3)n2)cc1Cl` [Compound A], the “increase in Peroxiredoxin activity over controls” value with Peroxiredoxin was found to be 48%. Besides, in the assay on LDL-receptor null mice, the LDL cholesterol entry is “reduction”, the VLDL cholesterol entry is “reduction”, the total cholesterol result is on record as “reduction” and the triglycerides result is on record as “reduction”. Also, in assay [1], the total triglycerides result is reported as “reduction”. Moreover, the “decrease in H2O2 levels vs untreated control” value in [2] is “approximately 77%”. In addition, the inhibition at 2.5 µM in the assay with MCP-1 came to 75%. Also, in the assay on VCAM-1, the inhibition at 2.5 µM is 75%. Besides, in the assay with TNF-α, the “inhibition of LPS-induced TNFα elevation” value was “completely inhibited” and the “serum TNFα level” value is listed as “undetectable”.
As to `OO` [Compound H2O2, hydrogen peroxide], in the assay on HepG2 cells [3], the “LDLr mRNA levels” value is on record as “did not have a significant effect” and the perlecan expression levels result is recorded as “significantly reduced”. Moreover, in the assay with HepG2 cells [4], the “LDL uptake by liver cells” value is recorded as “significantly decreased”. The “Stat1 driven luciferase expression” value in the assay on Stat1 is recorded as “significantly enhanced”.
As for `O=C1[C@H](CC[C@H](O)c2ccc(F)cc2)[C@@H](c2ccc(O)cc2)N1c1ccc(F)cc1` [Ezetimibe], in assay [5], the cholesterol lowering is reported as 15-18%.
